Reference: ChEMBL document CHEMBL1131674, “Synthesis and cytotoxic activities of 6-chloro-7-arylamino-5,8-isoquinolinediones” (Bioorg Med Chem Lett, 1999)
Converted amounts (≈) assume the structure as drawn.

Key:
Format in all cases: functional, cell-based, Homo sapiens
[1] = system: HCT-15; assay: In vitro cytotoxic activity against HCT-15 (colon) using SRB (sulforhodamine B) assay
[2] = system: XF498; assay: In vitro cytotoxic activity against XF 498 (CNS) using SRB (sulforhodamine B) assay
[3] = system: SK-MEL-2; assay: In vitro cytotoxic activity against SK-MEL-2 (melanoma) using SRB (sulforhodamine B) assay
[4] = system: SK-OV-3; assay: In vitro cytotoxic activity against SK-OV-3 (ovarian) using SRB (sulforhodamine B) assay
[5] = system: A549; assay: In vitro cytotoxic activity against A 549 (non-small cell lung) using SRB (sulforhodamine B) assay
[6] = Homo sapiens, HCT-15, read-out: IC50
[7] = Homo sapiens, XF498, read-out: IC50
[8] = Homo sapiens, SK-MEL-2, read-out: IC50
[9] = Homo sapiens, SK-OV-3, read-out: IC50
[10] = Homo sapiens, A549, read-out: IC50

| Compound | IC50 [1, 6] | IC50 [2, 7] | IC50 [3, 8] | IC50 [4, 9] | IC50 [5, 10] | IC50 ([1]; hct-15) | IC50 ([2]; xf498) | IC50 ([3]; sk-mel-2) | IC50 ([4]; sk-ov-3) | IC50 ([5]; a549) |
| --- | --- | --- | --- | --- | --- | --- | --- | --- | --- | --- |
| Cc1ccc(NC2=C(Cl)C(=O)c3cccnc3C2=O)cc1 | 0.33 µg/mL (≈ 1.1 µM) | 1.26 µg/mL (≈ 4.22 µM) | 0.42 µg/mL (≈ 1.41 µM) | 1.27 µg/mL (≈ 4.25 µM) | 1.14 µg/mL (≈ 3.82 µM) |  |  |  |  |  |
| O=C1C(Cl)=C(Nc2ccc(F)cc2)C(=O)c2ncccc21 | 0.18 µg/mL (≈ 0.595 µM) | 0.36 µg/mL (≈ 1.19 µM) | 1.39 µg/mL (≈ 4.59 µM) | 0.5 µg/mL (≈ 1.65 µM) | 1.25 µg/mL (≈ 4.13 µM) |  |  |  |  |  |
| CCOc1ccc(NC2=C(Cl)C(=O)c3ccncc3C2=O)cc1 | 0.03 µg/mL (≈ 0.0913 µM) | 0.27 µg/mL (≈ 0.821 µM) | 0.04 µg/mL (≈ 0.122 µM) | 0.34 µg/mL (≈ 1.03 µM) | 0.42 µg/mL (≈ 1.28 µM) |  |  |  |  |  |
| COc1ccc(NC2=C(Cl)C(=O)c3ccncc3C2=O)cc1 | 0.02 µg/mL (≈ 0.0635 µM) | 0.31 µg/mL (≈ 0.985 µM) | 0.02 µg/mL (≈ 0.0635 µM) | 0.28 µg/mL (≈ 0.89 µM) | 0.5 µg/mL (≈ 1.59 µM) |  |  |  |  |  |
| O=C1C(Cl)=C(Nc2ccccc2)C(=O)c2cnccc21 | 0.1 µg/mL (≈ 0.351 µM) | 0.96 µg/mL (≈ 3.37 µM) | 0.52 µg/mL (≈ 1.83 µM) | 0.86 µg/mL (≈ 3.02 µM) | 1.28 µg/mL (≈ 4.5 µM) |  |  |  |  |  |
| N#Cc1ccc(NC2=C(Cl)C(=O)c3cccnc3C2=O)cc1 | 1.45 µg/mL (≈ 4.68 µM) | 1.47 µg/mL (≈ 4.75 µM) | 0.6 µg/mL (≈ 1.94 µM) | 0.55 µg/mL (≈ 1.78 µM) | 1.7 µg/mL (≈ 5.49 µM) |  |  |  |  |  |
| COC1=C(N)C(=O)c2nc(-c3nc(C(=O)O)c(C)c(-c4ccc(OC)c(OC)c4O)c3N)ccc2C1=O [STREPTONIGRIN] | 0.02 µg/mL (≈ 0.0395 µM) | 0.31 µg/mL (≈ 0.612 µM) | 0.02 µg/mL (≈ 0.0395 µM) | 0.28 µg/mL (≈ 0.553 µM) | 0.33 µg/mL (≈ 0.652 µM) |  |  |  |  |  |
| O=C1C(Cl)=C(Nc2ccc(CCO)cc2)C(=O)c2ncccc21 | 0.48 µg/mL (≈ 1.46 µM) | 0.52 µg/mL (≈ 1.58 µM) | 0.36 µg/mL (≈ 1.1 µM) | 0.42 µg/mL (≈ 1.28 µM) | 1.11 µg/mL (≈ 3.38 µM) |  |  |  |  |  |
| N#Cc1ccc(NC2=C(Cl)C(=O)c3ccncc3C2=O)cc1 | 0.13 µg/mL (≈ 0.42 µM) | 0.3 µg/mL (≈ 0.969 µM) | 0.22 µg/mL (≈ 0.71 µM) | 0.21 µg/mL (≈ 0.678 µM) | 0.8 µg/mL (≈ 2.58 µM) |  |  |  |  |  |
| CCOc1ccc(NC2=C(Cl)C(=O)c3cccnc3C2=O)cc1 | 0.32 µg/mL (≈ 0.973 µM) | 0.55 µg/mL (≈ 1.67 µM) | 0.34 µg/mL (≈ 1.03 µM) | 0.33 µg/mL (≈ 1 µM) | 0.96 µg/mL (≈ 2.92 µM) |  |  |  |  |  |
| O=C1C(Cl)=C(Nc2ccc(Cl)cc2)C(=O)c2cnccc21 | 0.31 µg/mL (≈ 0.971 µM) | 1.54 µg/mL (≈ 4.83 µM) | 1.22 µg/mL (≈ 3.82 µM) | 1.86 µg/mL (≈ 5.83 µM) | 1.27 µg/mL (≈ 3.98 µM) |  |  |  |  |  |
| O=C1/C(=N/c2ccc(O)cc2)C(Cl)=C(O)c2ccncc21 | 0.05 µg/mL (≈ 0.166 µM) | 0.32 µg/mL (≈ 1.06 µM) | 0.06 µg/mL (≈ 0.2 µM) | 0.3 µg/mL (≈ 0.998 µM) | 0.36 µg/mL (≈ 1.2 µM) |  |  |  |  |  |
| O=C1C(Cl)=C(Nc2ccc(I)cc2)C(=O)c2cnccc21 | 0.1 µg/mL (≈ 0.244 µM) | 0.22 µg/mL (≈ 0.536 µM) | 0.23 µg/mL (≈ 0.56 µM) | 0.29 µg/mL (≈ 0.706 µM) | 1.96 µg/mL (≈ 4.77 µM) |  |  |  |  |  |
| O=C1C(Cl)=C(Nc2ccc(F)cc2)C(=O)c2cnccc21 | 0.07 µg/mL (≈ 0.231 µM) | 0.49 µg/mL (≈ 1.62 µM) | 0.13 µg/mL (≈ 0.429 µM) | 0.17 µg/mL (≈ 0.562 µM) | 0.66 µg/mL (≈ 2.18 µM) |  |  |  |  |  |
| Cc1ccc(NC2=C(Cl)C(=O)c3ccncc3C2=O)cc1 | 0.11 µg/mL (≈ 0.368 µM) | 1.06 µg/mL (≈ 3.55 µM) | 0.17 µg/mL (≈ 0.569 µM) | 1.54 µg/mL (≈ 5.16 µM) | 1.22 µg/mL (≈ 4.08 µM) |  |  |  |  |  |
| COc1ccc(NC2=C(Cl)C(=O)c3cccnc3C2=O)cc1 | 0.33 µg/mL (≈ 1.05 µM) | 1.26 µg/mL (≈ 4 µM) | 1.33 µg/mL (≈ 4.23 µM) | 1.3 µg/mL (≈ 4.13 µM) | 1.27 µg/mL (≈ 4.04 µM) |  |  |  |  |  |
| O=C1/C(=N/c2ccc(O)cc2)C(Cl)=C(O)c2cccnc21 | 0.86 µg/mL (≈ 2.86 µM) | 0.97 µg/mL (≈ 3.23 µM) | 0.47 µg/mL (≈ 1.56 µM) | 1.27 µg/mL (≈ 4.22 µM) | 1.56 µg/mL (≈ 5.19 µM) |  |  |  |  |  |
| O=C1C(Cl)=C(Nc2ccc(Br)cc2)C(=O)c2ncccc21 | 0.34 µg/mL (≈ 0.935 µM) | 2.83 µg/mL (≈ 7.78 µM) | 1.26 µg/mL (≈ 3.47 µM) | 0.92 µg/mL (≈ 2.53 µM) | 4.28 µg/mL (≈ 11.8 µM) |  |  |  |  |  |
| O=C1C(Cl)=C(Nc2ccc(I)cc2)C(=O)c2ncccc21 | 1.27 µg/mL (≈ 3.09 µM) | 3.61 µg/mL (≈ 8.79 µM) | 3.3 µg/mL (≈ 8.04 µM) | 1.62 µg/mL (≈ 3.95 µM) | 4.29 µg/mL (≈ 10.4 µM) |  |  |  |  |  |
| CISPLATIN |  |  |  |  |  | 2.9 µg/mL | 2.74 µg/mL | 1.38 µg/mL | 2.07 µg/mL | 1.8 µg/mL |
| O=C1C(Cl)=C(Nc2ccccc2)C(=O)c2ncccc21 | 0.74 µg/mL (≈ 2.6 µM) | 1.33 µg/mL (≈ 4.67 µM) | 1.42 µg/mL (≈ 4.99 µM) | 1.34 µg/mL (≈ 4.71 µM) | 2.3 µg/mL (≈ 8.08 µM) |  |  |  |  |  |
| O=C1C(Cl)=C(Nc2ccc(CCO)cc2)C(=O)c2cnccc21 | 0.18 µg/mL (≈ 0.548 µM) | 0.06 µg/mL (≈ 0.183 µM) | 0.08 µg/mL (≈ 0.243 µM) | 0.63 µg/mL (≈ 1.92 µM) | 0.61 µg/mL (≈ 1.86 µM) |  |  |  |  |  |
| O=C1C(Cl)=C(Nc2ccc(Cl)cc2)C(=O)c2ncccc21 | 0.34 µg/mL (≈ 1.07 µM) | 3.31 µg/mL (≈ 10.4 µM) | 1.3 µg/mL (≈ 4.07 µM) | 1.33 µg/mL (≈ 4.17 µM) | 5.03 µg/mL (≈ 15.8 µM) |  |  |  |  |  |
| O=C1C(Cl)=C(Nc2ccc(Br)cc2)C(=O)c2cnccc21 | 0.18 µg/mL (≈ 0.495 µM) | 1.28 µg/mL (≈ 3.52 µM) | 0.66 µg/mL (≈ 1.82 µM) | 0.97 µg/mL (≈ 2.67 µM) | 1.1 µg/mL (≈ 3.03 µM) |  |  |  |  |  |
| CCc1ccc(NC2=C(Cl)C(=O)c3cccnc3C2=O)cc1 | 1.39 µg/mL (≈ 4.44 µM) | 0.66 µg/mL (≈ 2.11 µM) | 1.97 µg/mL (≈ 6.3 µM) | 1.35 µg/mL (≈ 4.32 µM) | 1.35 µg/mL (≈ 4.32 µM) |  |  |  |  |  |
| CCc1ccc(NC2=C(Cl)C(=O)c3ccncc3C2=O)cc1 | 0.05 µg/mL (≈ 0.16 µM) | 0.33 µg/mL (≈ 1.06 µM) | 0.07 µg/mL (≈ 0.224 µM) | 0.34 µg/mL (≈ 1.09 µM) | 0.62 µg/mL (≈ 1.98 µM) |  |  |  |  |  |
